Assay [1] deals with Fatty Acid Synthase Keto-reductase Domain (FASN KR) (Homo sapiens, UniProt P49327). The assay is described as follows: Fatty Acid Synthase keto-reductase domain (FASN KR) inhibition, NADPH oxidation at 340 nm.
Description: After 20 minutes incubation at room temperature the plate was measured again (T2).
The decrease in absorbance was calculated as (Absorbance before incubation T1)−(Absorbance following incubation T2).
A plot of Controlmin versus test compound concentration was fitted to a 4-parameter logistic curve using a non-linear least squares regression method.
The target in assay [2] is T1, hFASN enzyme (full length) (Homo sapiens, UniProt P49327).
T1 construct: 10 μL hFASN enzyme (full length, 300 ng, purified in house); made in house
In words: Fatty Acid Synthase (FASN) inhibition scintillation proximity assay. The following applies: for inhibition at 10 µM: read-out: Human FASN % inhibition @ 10 μM, 10 μM test compound; for IC50: read-out: Human FASN pIC50 (converted). The class given is biochemical. The essentials: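 Full-length in-house purified enzyme (300 ng) was tested in 100 mM KH2PO4 pH 7.5, 1 mM DTT with ³H-acetyl-CoA and malonyl-CoA as substrates; compounds ranged 0.01–30 μM. Reactions were stopped with streptavidin imaging beads, read by LEADseeker at 610 nm, and fitted to a 4-parameter logistic curve.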
Background: SPA uses beads or plates that emit light when radiolabelled molecules are held near them.

Assay [3] relates to A2780 ovarian cells. In words: A2780 ovarian cell proliferation assay in lipid reduced medium, without palmitate (MTT). The class given is cell-based. The following applies: Homo sapiens, A2780, 96 h; read-out: pIC50 A2780 Ovarian Cell, Without Palmitate (converted).
Assay [4] relates to A2780 ovarian cells. In words: A2780 ovarian cell proliferation assay in lipid reduced medium, with palmitate (MTT). It is filed as cell-based. The settings on record: Homo sapiens, A2780, 96 h; read-out: pIC50 A2780 Ovarian Cell, With Palmitate (converted). The essentials: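 Seeded cells were switched next day to lipid-reduced serum, exposed to compound and 25 μM palmitate complexed with fatty-acid-free BSA, and incubated 96 h. Proliferation was then determined by MTT absorbance at 544 nm, with a best-fit curve of signal against concentration.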

The test system of assay [5] is LNCaP-Vancouver prostate cells. In words: In vitro LNCaP Vancouver prostate cell proliferation assay in lipid reduced medium. The class given is cell-based. The settings on record: read-out: pIC50 LNCaP_Vancouver prostate cell (converted).
In assay [6] the test system is PC-3M-Luc-C6 prostate cells. The assay is described as follows: In vitro PC-3M-Luc-C6 prostate cell proliferation assay in lipid reduced medium. The settings on record: 96 h, read-out: pIC50 PC-3M-Luc-C6 prostate cell (converted). It is filed as cell-based.

Molecules are shown by their SMILES.

Sequence of Fatty Acid Synthase Keto-reductase Domain (FASN KR) (P49327 whole entry, the tested form may be a part): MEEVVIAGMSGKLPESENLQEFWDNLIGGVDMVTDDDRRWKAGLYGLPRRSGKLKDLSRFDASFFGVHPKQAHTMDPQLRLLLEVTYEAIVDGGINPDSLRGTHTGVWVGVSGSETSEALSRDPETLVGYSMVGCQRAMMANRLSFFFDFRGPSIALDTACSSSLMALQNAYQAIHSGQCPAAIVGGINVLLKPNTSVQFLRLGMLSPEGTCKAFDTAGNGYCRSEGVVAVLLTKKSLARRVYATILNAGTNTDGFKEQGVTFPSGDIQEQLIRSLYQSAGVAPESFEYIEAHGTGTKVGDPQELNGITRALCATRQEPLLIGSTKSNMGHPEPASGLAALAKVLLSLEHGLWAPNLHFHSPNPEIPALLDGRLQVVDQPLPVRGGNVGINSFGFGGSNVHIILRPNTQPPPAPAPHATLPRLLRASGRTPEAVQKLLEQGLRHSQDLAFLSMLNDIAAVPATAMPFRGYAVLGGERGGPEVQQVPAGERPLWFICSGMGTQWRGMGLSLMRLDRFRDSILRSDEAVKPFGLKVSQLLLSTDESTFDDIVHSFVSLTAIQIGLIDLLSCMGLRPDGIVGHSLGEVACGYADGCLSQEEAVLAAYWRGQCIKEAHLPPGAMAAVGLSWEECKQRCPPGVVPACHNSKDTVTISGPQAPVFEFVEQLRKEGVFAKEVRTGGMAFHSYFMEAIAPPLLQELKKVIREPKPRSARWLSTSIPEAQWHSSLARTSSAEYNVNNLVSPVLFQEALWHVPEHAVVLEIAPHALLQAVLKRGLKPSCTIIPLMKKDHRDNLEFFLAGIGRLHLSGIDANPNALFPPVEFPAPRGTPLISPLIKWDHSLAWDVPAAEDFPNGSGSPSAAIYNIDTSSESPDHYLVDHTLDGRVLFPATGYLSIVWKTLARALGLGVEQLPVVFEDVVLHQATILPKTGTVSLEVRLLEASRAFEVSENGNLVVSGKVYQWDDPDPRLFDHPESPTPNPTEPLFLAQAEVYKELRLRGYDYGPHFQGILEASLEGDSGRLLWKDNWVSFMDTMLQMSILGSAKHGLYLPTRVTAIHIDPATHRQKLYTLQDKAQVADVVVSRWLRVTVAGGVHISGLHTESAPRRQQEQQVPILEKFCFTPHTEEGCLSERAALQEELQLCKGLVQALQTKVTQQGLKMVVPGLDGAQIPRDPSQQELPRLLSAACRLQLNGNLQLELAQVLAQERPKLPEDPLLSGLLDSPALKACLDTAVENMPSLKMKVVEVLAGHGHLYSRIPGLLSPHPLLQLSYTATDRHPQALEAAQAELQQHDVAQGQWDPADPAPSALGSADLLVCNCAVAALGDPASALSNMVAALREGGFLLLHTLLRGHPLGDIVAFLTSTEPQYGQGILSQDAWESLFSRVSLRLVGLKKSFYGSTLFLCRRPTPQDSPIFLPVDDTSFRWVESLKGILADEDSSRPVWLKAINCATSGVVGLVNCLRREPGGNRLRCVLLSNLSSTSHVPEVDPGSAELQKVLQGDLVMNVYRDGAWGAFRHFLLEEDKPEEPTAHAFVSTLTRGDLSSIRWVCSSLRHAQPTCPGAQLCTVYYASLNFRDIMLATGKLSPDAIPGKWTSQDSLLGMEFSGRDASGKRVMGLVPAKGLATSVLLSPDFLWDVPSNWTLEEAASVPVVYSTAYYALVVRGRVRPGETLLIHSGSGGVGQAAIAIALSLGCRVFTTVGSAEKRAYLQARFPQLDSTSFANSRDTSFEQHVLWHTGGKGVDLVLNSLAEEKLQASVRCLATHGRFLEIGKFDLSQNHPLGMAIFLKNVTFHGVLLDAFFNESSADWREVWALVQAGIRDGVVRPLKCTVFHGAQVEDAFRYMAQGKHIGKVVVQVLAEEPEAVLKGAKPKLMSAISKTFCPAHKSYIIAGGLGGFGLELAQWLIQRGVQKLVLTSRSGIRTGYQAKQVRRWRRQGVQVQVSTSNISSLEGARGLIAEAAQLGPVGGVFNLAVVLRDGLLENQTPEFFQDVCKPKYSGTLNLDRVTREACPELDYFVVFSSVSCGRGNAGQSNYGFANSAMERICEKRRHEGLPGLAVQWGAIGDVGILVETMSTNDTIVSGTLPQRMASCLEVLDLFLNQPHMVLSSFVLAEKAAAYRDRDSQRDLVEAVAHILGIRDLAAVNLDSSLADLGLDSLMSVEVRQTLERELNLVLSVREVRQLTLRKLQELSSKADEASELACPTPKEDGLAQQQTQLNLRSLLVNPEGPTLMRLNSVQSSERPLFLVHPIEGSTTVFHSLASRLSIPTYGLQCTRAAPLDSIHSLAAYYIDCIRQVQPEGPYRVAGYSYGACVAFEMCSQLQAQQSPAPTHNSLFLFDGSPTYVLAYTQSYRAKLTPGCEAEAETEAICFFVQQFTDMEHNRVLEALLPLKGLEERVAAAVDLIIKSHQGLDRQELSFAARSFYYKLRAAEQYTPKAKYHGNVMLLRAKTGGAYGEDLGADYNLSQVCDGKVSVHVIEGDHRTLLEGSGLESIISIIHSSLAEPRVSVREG
T1 sequence (P49327 whole entry): as the sequence (P49327 whole entry, the tested form may be a part) above

As for `O=C(C1CC1)N1CC[C@@H](CN2C(=O)C3(CC3)N=C2c2ccc(-c3nc4ccccc4o3)cc2F)C1` [compound 251, (R)-5-(4-(benzo[d]oxazol-2-yl)-2-fluorophenyl)-6-((1-(cyclopropanecarbonyl)pyrrolidin-3-yl)methyl)-4,6-diazaspiro[2.4]hept-4-en-7-one], the IC50 in assay [1] was 42.7 nM; in assay [2], 32.4 nM; in the assay with A2780 ovarian cells [3], 72.4 nM; in the assay with A2780 ovarian cells [4], > 10000 nM; in assay [5] it was 138 nM; in assay [6], ~41.7 nM. The inhibition at 10 µM in assay [2] was 101%.

For `O=C(C1CC1)N1CC[C@@H](CN2C(=O)C3(CC3)N=C2c2ccc(-c3ccc4[nH]ncc4c3)cc2F)C1` [compound 253, (R)-6-((1-(cyclopropanecarbonyl)pyrrolidin-3-yl)methyl)-5-(2-fluoro-4-(1H-indazol-5-yl)phenyl)-4,6-diazaspiro[2.4]hept-4-en-7-one], the IC50 in assay [1] was 27.5 nM; in assay [2] it was 35.5 nM; in the assay with A2780 ovarian cells [3] it was 12 nM; in the assay on A2780 ovarian cells [4], > 10000 nM; in assay [5] it was 64.6 nM; in assay [6], 14.1 nM. Moreover, the inhibition at 10 µM in assay [2] worked out at 97%.

On to `N#Cc1cc2cc(-c3ccc(C4=NC5(CC5)C(=O)N4C[C@@H]4CCN(C(=O)C5CC5)C4)c(F)c3)ccc2o1` [compound 254, (R)-5-(4-(6-((1-(cyclopropanecarbonyl)pyrrolidin-3-yl)methyl)-7-oxo-4,6-diazspiro[2.4]hept-4-en-5-yl)-3-fluorophenyl)benzofuran-2-carbonitrile], for which the IC50 is 50.1 nM in assay [1]; 29.5 nM in assay [2]; 437 nM in the assay with A2780 ovarian cells [3]; > 10000 nM in the assay on A2780 ovarian cells [4]; 1380 nM in assay [5]; 224 nM in assay [6]. Moreover, in assay [2], the inhibition at 10 µM came to 100%.

With `Cc1cc(-c2ccc3oc(C#N)cc3c2)ccc1C1=NC2(CC2)C(=O)N1C[C@@H]1CCN(C(=O)C2CC2)C1` [compound 255, (R)-5-(4-(6-((1-(cyclopropanecarbonyl)pyrrolidin-3-yl)methyl)-7-oxo-4,6-diazaspiro[2.4]hept-4-en-5-yl)-3-methylphenyl)benzofuran-2-carbonitrile], the IC50 in assay [1] is 83.2 nM; in assay [2], 63.1 nM; in the assay on A2780 ovarian cells [3], ~977 nM; in the assay with A2780 ovarian cells [4] it was > 10000 nM; in assay [5] it was 1120 nM; in assay [6], ~525 nM. The inhibition at 10 µM in assay [2] was 99%.

Regarding `N#Cc1cc2cc(-c3ccc(C4=NC5(CC5)C(=O)N4C[C@@H]4CCN(C(=O)C5CC5)C4)cc3)ccc2o1` [compound 256, (R)-5-(4-(6-((1-(cyclopropanecarbonyl)pyrrolidin-3-yl)methyl)-7-oxo-4,6-diazaspiro[2.4]hept-4-en-5-yl)phenyl)benzofuran-2-carbonitrile], the IC50 in assay [1] was 95.5 nM; in assay [2] it was 53.7 nM; with A2780 ovarian cells [3], 832 nM; in the assay on A2780 ovarian cells [4], > 10000 nM; in assay [5] it was 2400 nM; in assay [6], ~417 nM. The inhibition at 10 µM in assay [2] is 95%.

In the case of `O=C(C1CC1)N1CC[C@@H](CN2C(=O)C3(CC3)N=C2c2ccc(-c3ccc4cncnc4c3)cc2F)C1` [compound 258, (R)-6-((1-(cyclopropanecarbonyl)pyrrolidin-3-yl)methyl)-5-(2-fluoro-4-(quinazolin-7-yl)phenyl)-4,6-diazaspiro[2.4]hept-4-en-7-one], the IC50 is 83.2 nM in assay [1]; 72.4 nM in assay [2]; ~11.2 nM in the assay on A2780 ovarian cells [3]; > 10000 nM with A2780 ovarian cells [4]; 31.6 nM in assay [5]; 14.5 nM in assay [6]. Also, in assay [2], the inhibition at 10 µM was determined as 94%.

As to `O=C(C1CC1)N1CC[C@@H](CN2C(=O)C3(CC3)N=C2c2ccc(-c3ccc4cc(F)ccc4c3)cc2F)C1` [compound 259, (R)-6-((1-(cyclopropanecarbonyl)pyrrolidin-3-yl)methyl)-5-(2-fluoro-4-(6-fluoronaphthalen-2-yl)phenyl)-4,6-diazaspiro[2.4]hept-4-en-7-one], the IC50 in assay [1] is 29.5 nM; in assay [2], 25.1 nM; in the assay on A2780 ovarian cells [3] it was 105 nM; in the assay with A2780 ovarian cells [4], > 10000 nM; in assay [5] it was 447 nM; in assay [6], 67.6 nM. The inhibition at 10 µM in assay [2] amounted to 95%.

With `O=C(C1CC1)N1CC[C@@H](CN2C(=O)C3(CC3)N=C2c2ccc(-c3ccc4cccc(F)c4c3)cc2F)C1` [compound 260, (R)-6-((1-(cyclopropanecarbonyl)pyrrolidin-3-yl)methyl)-5-(2-fluoro-4-(8-fluoronaphthalen-2-yl)phenyl)-4,6-diazaspiro[2.4]hept-4-en-7-one], the IC50 in assay [1] is 37.2 nM; in assay [2], 16.2 nM; in the assay with A2780 ovarian cells [3] it was ~70.8 nM; in the assay with A2780 ovarian cells [4] it was > 10000 nM; in assay [5], 85.1 nM; in assay [6] it was 37.2 nM. Besides, the inhibition at 10 µM in assay [2] was 101%.

Consider `O=C(C1CC1)N1CC[C@@H](CN2C(=O)C3(CC3)N=C2c2ccc(-c3c[nH]c4ccccc34)cc2F)C1` [compound 261, (R)-6-((1-(cyclopropanecarbonyl)pyrrolidin-3-yl)methyl)-5-(2-fluoro-4-(1H-indol-3-yl)phenyl)-4,6-diazaspiro[2.4]hept-4-en-7-one], for which the IC50 in assay [1] is 89.1 nM; in assay [2], 55 nM; with A2780 ovarian cells [3], 6.61 nM; in the assay with A2780 ovarian cells [4], > 10000 nM; in assay [5], ~102 nM; in assay [6] it was 21.4 nM. Also, the inhibition at 10 µM in assay [2] stood at 98%.

Consider `Cn1ncc2cc(-c3ccc(C4=NC5(CC5)C(=O)N4CC4CN(C(=O)C5(O)CC5)C4)c(Cl)c3)ccc21` [compound 264, 5-(2-chloro-4-(1-methyl-1H-indazol-5-yl)phenyl)-6-((1-(1-hydroxycyclopropanecarbonyl)azetidin-3-yl)methyl)-4,6-diazaspiro[2.4]hept-4-en-7-one], for which the IC50 in assay [1] is 158 nM; in assay [2] it was 37.2 nM; in the assay on A2780 ovarian cells [3], 74.1 nM; with A2780 ovarian cells [4], > 10000 nM; in assay [5], 501 nM; in assay [6] it was 44.7 nM. In assay [2], the inhibition at 10 µM was found to be 108%.

Regarding `Cc1cc(-c2ccc3c(cnn3C)c2)ccc1C1=NC2(CC2)C(=O)N1C[C@@H]1CCN(C(=O)C2(C)CC2)C1` [compound 265, (R)-5-(2-methyl-4-(1-methyl-1H-indazol-5-yl)phenyl)-6-((1-(1-methylcyclopropanecarbonyl)pyrrolidin-3-yl)methyl)-4,6-diazaspiro[2.4]hept-4-en-7-one], the IC50 in assay [1] was ~53.7 nM; in assay [2], 45.7 nM; with A2780 ovarian cells [3] it was ~2.88 nM; with A2780 ovarian cells [4], > 10000 nM; in assay [5], 13.8 nM; in assay [6], ~7.08 nM. For the same molecule, in assay [2], the inhibition at 10 µM is 103%.

Consider `Cc1cc(-c2ccc3cc(F)ccc3c2)ccc1C1=NC2(CC2)C(=O)N1C[C@@H]1CCN(C(=O)C2(C)CC2)C1` [compound 266, (R)-5-(4-(6-fluoronaaphthalen-2-yl)-2-methylphenyl)-6-((1-(1-methylcyclopropanecarbonyl)pyrrolidin-3-yl)methyl)-4,6-diazaspiro[2.4]hept-4-en-7-one], for which the IC50 is 46.8 nM in assay [1]; 33.9 nM in assay [2]; ~2.19 nM in the assay with A2780 ovarian cells [3]; 1350 nM in the assay on A2780 ovarian cells [4]; 15.1 nM in assay [5]; 4.68 nM in assay [6]. Also, the inhibition at 10 µM in assay [2] amounted to 102%.

For `Cc1cc(-c2ccc(-c3cnn(C)c3)cc2)ccc1C1=NC2(CC2)C(=O)N1C[C@@H]1CCN(C(=O)C2(C)CC2)C1` [compound 267], the IC50 is 51.3 nM in assay [1]; 26.3 nM in assay [2]; 1.7 nM in the assay on A2780 ovarian cells [3]; > 10000 nM in the assay on A2780 ovarian cells [4]; 12.3 nM in assay [5]; ~3.09 nM in assay [6]. The inhibition at 10 µM in assay [2] worked out at 97%.

For `N#Cc1ccc2nc(-c3ccc(C4=NC5(CC5)C(=O)N4CC4CN(C(=O)C5CC5)C4)c(F)c3)sc2c1` [compound 268, 2-(4-(6-((1-(cyclopropanecarbonyl)azetidin-3-yl)methyl)-7-oxo-4,6-diazaspiro[2.4]hept-4-en-5-yl)-3-fluorophenyl)benzo[d]thiazole-6-carbonitrile], the IC50 in assay [1] is 69.2 nM; in assay [2], 55 nM; in the assay with A2780 ovarian cells [3] it was ~44.7 nM; in the assay with A2780 ovarian cells [4], > 10000 nM; in assay [5] it was 288 nM; in assay [6] it was 58.9 nM. Also, the inhibition at 10 µM in assay [2] is 104%.

For `Cc1cc(-c2ccc3cc(C#N)ccc3c2)ccc1C1=NC2(CC2)C(=O)N1CC1CN(C(=O)C2(C)CC2)C1` [compound 269, 6-(3-methyl-4-(6-((1-(1-methylcyclopropanecarbbonyl)azetidin-3-yl)methyl)-7-oxo-4,6-diazaspiro[2.4]hept-4-en-5-yl)phenyl)-2-naphthonitrile], the IC50 in assay [1] was 66.1 nM; in assay [2] it was 22.4 nM; with A2780 ovarian cells [3] it was ~3.72 nM; in the assay with A2780 ovarian cells [4], 4270 nM; in assay [5], 28.2 nM; in assay [6], ~8.32 nM. For the same molecule, the inhibition at 10 µM in assay [2] worked out at 102%.

For orientation: inhibition means the change of the read-out against control, counted positive when it falls.

For the origin of these results see US10077261B2, “Imidazolin-5-one derivative useful as FASN inhibitors for the treatment of cancer” (Janssen Pharmaceutica NV, priority 2012, dated 2018).
